Results reported in EP0414755B1, “INTERACTION SYSTEM COMPRISING A SURFACTANT-STABILIZED DISPERSE AQUEOUS PHASE CONTAINING AN ANTIBODY OR ANTIBODY FRAGMENT” (IGEN, INC., priority 1988, dated 1989).

Legend:
[1] = system: 48-G7 antibody (monoclonal IgG made against a p-nitrophenylphosphonate hapten); experiment: 48-G7 antibody-catalyzed hydrolysis of p-nitrophenylcarbonate in aqueous tris buffer, inhibition by transition state analog; type: biochemical; settings: 24 µM inhibitor, 90 µg/ml 48-G7, 10 mM tris buffer pH 8.5
Method: A solution of the 48-G7 antibody was purified from ascites fluid by Protein A chromatography. Following dialysis of the IgG fractions which were obtained into 10 mM tris buffer, 4.0 ml of a 3.0 mg/ml solution of this protein was lyophilyzed to dryness. The protein powder was then resuspended in 1.5 ml of 10 mM tris buffer (pH 8.5). When 10 µl of this antibody solution was added to one milliliter of buffer, a protein concentration of 0.090 mg/ml resulted (as determined from 280 nm and 260 nm absorbances). Thus, the stock antibody solution was 9.0 mg/ml.
The rate of antibody catalyzed hydrolysis of p-nitrophenylcarbonate was determined by adding 15 µl of a 50 mM p-nitrophenylcarbonate (p-NPC) solution dissolved in tetrahydrofuran to 3.0 ml of 10 mM tris buffer (pH 8.5). After this solution was mixed to homogeneity, 1.0 ml was transferred into a reference cuvette and 1.0 ml was transferred into a sample cuvette. An assay was initiated by addition of 10 µl of the 48-G7 antibody solution (0.090 mg). The progress of the reaction was monitored with a Hitachi Model 3200 double beam spectrophotometer (to screen out the rate of solvent-induced background hydrolysis) at 400 nm. The extinction coefficient for the product, p-nitrophenol, was 18,300 M^-1 cm^-1 at pH 8.5.

[2] = system: 48-G7 antibody (monoclonal IgG made against a p-nitrophenylphosphonate hapten); experiment: 48-G7 antibody-catalyzed hydrolysis of p-nitrophenylcarbonate in AOT/iso-octane microemulsion, inhibition by transition state analog; type: biochemical; settings: 24 µM final concentration of inhibitor; 50 mM AOT in iso-octane, 888 µM p-NPC; uninhibited rate 0.00028 Abs/minute
Method: The rate of 48-G7 antibody-catalyzed hydrolysis of p-NPC was determined in a 50 mM solution of sodium bi-(2-ethylhexyl) sulfosuccinate ("AOT") in iso-octane containing 888 µM of p-NPC. First 20 ml of the iso-octane solution containing 0.445 g of AOT (M.W.=445g) and 3.5 mg of p-NPC (M.W.-197g) were prepared. To this solution […] (pH 8.5) and 10 µl of the 48-G7 antibody solution were added. A microemulsion of disperse aqueous phase in the iso-octane was obtained by mixing. The hydrolysis of p-NPC and the production of p-nitrophenol was monitored at 400 nm, although an accurate conversion between 400 nm absorbance and moles of p-nitrophenol formed was not possible because the pH inside the microemulsified aqueous phase particles could not be accurately determined.
Upon addition of the 48-G7 antibody solution, the biphasic system became turbid as the antibody-containing, microemulsified aqueous phase particles formed. Subsequently, absorbance at 400 nm began to increase as p-nitrophenol was formed. The rate of 400 nm absorbance increase was 0.00028 Abs/minute.
When this experiment was repeated with the 10 µl of tris buffer containing 2.4 mM p-nitrophosphonate hapten (24 µM final concentration), the initial 400 nm absorbance was similar to the non-inhibited antibody solution. […] Instead, the 400 nm absorbance continued to decrease. […]

## O=[N+]([O-])c1ccc(P(=O)(O)O)cc1 [p-nitrophenylphosphonate]
[1]; uninhibited rate 0.49 µmolar p-NPC per minute
  rate of hydrolysis of p-NPC in the presence of inhibitor: 0.109 µM/min
[1]; uninhibited rate 0.0089 Abs/min
  rate of hydrolysis of p-NPC in the presence of inhibitor (400 nm absorbance): 0.002 Abs units/minute
[2]
  400 nm absorbance (p-nitrophenylcarbonate hydrolysis) in the presence of inhibitor: did not rise
